Experimental data: US11497752B2, “Compounds and uses thereof” (Foghorn Therapeutics Inc., priority 2018, dated 2022)

Legend:
BRM = BRM (Homo sapiens, UniProt P51531); assay: ATPase catalytic activity of BRM (ADP-Glo in vitro biochemical assay); settings: for BRM Max % Inhibition: Table 6
BRG-1 = BRG-1 (Homo sapiens, UniProt P51532); assay: ATPase catalytic activity of BRG-1 (ADP-Glo in vitro biochemical assay); settings: for BRG1 Max % Inhibition: Table 6
Sequence of BRG-1 (P51532 whole entry): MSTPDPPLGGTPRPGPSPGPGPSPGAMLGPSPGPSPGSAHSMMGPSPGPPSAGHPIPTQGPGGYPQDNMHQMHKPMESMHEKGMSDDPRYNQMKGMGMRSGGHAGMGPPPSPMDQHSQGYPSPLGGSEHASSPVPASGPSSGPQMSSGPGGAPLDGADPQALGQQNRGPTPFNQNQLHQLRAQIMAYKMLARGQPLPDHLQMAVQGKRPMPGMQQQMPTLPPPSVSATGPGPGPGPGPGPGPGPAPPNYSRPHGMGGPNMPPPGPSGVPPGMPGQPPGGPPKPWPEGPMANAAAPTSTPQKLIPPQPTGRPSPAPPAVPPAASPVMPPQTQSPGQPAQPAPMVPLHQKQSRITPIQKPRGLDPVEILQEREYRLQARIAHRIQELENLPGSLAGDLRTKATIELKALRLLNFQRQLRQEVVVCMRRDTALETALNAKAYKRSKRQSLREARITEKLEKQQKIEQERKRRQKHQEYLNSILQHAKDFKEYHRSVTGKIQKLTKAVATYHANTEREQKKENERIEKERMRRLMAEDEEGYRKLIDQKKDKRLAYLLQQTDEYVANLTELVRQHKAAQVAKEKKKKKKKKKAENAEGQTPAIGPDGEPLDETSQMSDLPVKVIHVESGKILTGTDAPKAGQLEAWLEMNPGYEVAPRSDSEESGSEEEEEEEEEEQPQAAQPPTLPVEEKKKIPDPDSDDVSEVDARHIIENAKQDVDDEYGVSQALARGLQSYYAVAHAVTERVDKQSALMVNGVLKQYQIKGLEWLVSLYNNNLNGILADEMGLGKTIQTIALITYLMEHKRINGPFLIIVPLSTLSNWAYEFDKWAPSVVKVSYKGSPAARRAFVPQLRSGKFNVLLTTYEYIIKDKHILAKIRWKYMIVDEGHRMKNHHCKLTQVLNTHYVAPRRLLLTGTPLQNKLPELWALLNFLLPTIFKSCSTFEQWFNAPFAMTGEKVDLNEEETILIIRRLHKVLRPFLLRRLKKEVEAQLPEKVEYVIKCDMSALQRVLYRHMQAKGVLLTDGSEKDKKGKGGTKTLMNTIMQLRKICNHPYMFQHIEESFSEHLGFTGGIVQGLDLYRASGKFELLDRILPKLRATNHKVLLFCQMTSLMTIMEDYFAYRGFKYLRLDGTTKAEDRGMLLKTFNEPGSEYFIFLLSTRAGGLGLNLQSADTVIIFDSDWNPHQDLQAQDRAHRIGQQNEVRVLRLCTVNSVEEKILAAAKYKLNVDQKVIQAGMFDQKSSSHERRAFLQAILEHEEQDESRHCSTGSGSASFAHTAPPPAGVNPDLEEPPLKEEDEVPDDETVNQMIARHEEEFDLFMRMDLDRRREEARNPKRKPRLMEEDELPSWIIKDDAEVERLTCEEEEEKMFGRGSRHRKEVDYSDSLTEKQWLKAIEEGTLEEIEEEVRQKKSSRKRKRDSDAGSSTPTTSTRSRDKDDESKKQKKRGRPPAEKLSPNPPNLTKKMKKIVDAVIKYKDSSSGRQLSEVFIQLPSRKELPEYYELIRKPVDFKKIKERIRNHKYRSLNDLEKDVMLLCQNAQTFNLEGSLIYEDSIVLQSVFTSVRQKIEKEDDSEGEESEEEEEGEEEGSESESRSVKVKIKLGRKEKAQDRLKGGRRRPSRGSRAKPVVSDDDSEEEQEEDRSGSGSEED

Sequence of BRM (P51531 whole entry): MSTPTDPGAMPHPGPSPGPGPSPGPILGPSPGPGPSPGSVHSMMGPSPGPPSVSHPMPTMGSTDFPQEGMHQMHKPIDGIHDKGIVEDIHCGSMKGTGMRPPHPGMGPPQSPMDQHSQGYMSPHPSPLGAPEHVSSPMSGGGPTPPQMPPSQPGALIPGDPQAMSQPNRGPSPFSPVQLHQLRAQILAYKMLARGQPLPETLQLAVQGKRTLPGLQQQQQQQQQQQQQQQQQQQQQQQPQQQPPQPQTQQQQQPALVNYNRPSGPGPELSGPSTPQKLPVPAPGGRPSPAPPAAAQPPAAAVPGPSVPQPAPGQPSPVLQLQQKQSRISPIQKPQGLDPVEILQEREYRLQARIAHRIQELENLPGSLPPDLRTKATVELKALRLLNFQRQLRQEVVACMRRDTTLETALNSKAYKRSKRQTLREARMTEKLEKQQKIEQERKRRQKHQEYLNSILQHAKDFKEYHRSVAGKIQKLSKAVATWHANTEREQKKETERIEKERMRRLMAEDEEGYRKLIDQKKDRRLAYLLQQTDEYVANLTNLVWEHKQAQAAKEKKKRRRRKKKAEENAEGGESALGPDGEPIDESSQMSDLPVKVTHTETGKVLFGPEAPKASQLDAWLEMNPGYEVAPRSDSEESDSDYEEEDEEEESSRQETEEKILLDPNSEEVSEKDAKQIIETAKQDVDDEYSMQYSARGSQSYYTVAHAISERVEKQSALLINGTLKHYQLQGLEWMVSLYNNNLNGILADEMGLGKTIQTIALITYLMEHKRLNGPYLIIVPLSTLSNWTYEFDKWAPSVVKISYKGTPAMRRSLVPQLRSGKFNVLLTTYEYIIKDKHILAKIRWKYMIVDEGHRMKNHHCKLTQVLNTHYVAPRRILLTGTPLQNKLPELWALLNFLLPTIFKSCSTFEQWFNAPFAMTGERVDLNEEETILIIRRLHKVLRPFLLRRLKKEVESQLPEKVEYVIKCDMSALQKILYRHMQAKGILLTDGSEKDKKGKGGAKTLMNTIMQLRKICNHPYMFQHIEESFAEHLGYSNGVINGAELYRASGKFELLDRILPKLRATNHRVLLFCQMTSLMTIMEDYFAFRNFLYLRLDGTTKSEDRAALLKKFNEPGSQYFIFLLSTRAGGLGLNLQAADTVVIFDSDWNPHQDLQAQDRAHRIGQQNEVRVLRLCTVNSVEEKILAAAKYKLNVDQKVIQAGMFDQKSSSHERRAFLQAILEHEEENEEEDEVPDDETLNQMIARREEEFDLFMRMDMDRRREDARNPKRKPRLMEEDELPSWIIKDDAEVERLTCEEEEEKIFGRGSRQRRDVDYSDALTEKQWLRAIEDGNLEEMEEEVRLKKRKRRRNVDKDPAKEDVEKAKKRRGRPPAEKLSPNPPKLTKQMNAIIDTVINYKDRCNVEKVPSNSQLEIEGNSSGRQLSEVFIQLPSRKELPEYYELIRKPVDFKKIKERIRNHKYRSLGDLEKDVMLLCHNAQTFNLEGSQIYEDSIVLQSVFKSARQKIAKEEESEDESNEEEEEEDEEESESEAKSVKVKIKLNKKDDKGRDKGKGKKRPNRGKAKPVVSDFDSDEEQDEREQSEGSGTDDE

SMILES | IC50 (BRM) | BRM Max % Inhibition (BRM) | IC50 (BRG-1) | BRG1 Max % Inhibition (BRG-1)
CN(C)C(=O)CN(C)c1cc(-c2cccc(-c3csc(NC(=O)CNC(=O)c4ccc(N)cc4)n3)c2)ccn1 [Compound 206, 4-amino-N-[2-[[4-[3-[2-[[2-(dimethylamino)-2-oxo-ethyl]-methyl-amino]-4-pyridyl]phenyl]thiazol-2-yl]amino]-2-oxo-ethyl]benzamide] | 0.1 to 1 µM | >95% | 0.1 to 1 µM | >95%
CC(C)c1cc(-c2cccc(-c3csc(NC(=O)CNC(=O)c4ccc(N)cc4)n3)c2)ccn1 [Compound 207, 4-amino-N-[2-[[4-[3-(2-isopropyl-4-pyridyl)phenyl]thiazol-2-yl]amino]-2-oxo-ethyl]benzamide] | < 0.1 µM | >95% | < 0.1 µM | >95%
Nc1ccc(C(=O)NCC(=O)Nc2nc(-c3cncc(-c4ccncc4)c3)cs2)cc1 [Compound 208, 4-amino-N-[2-oxo-2-[[4-[5-(4-pyridyl)-3-pyridyl]thiazol-2-yl]amino]ethyl]benzamide] | 0.1 to 1 µM | >90% | 0.1 to 1 µM | >80%
COC(=O)C(C)(C)n1ccc(-c2cccc(-c3csc(NC(=O)CNC(=O)c4ccc(N)cc4)n3)c2)n1 [Compound 209, methyl 2-[3-[3-[2-[[2-[(4-aminobenzoyl)amino]acetyl]amino]thiazol-4-yl]phenyl]pyrazol-1-yl]-2-methyl-propanoate] | < 0.1 µM | >95% | < 0.1 µM | >95%
Nc1ccc(C(=O)NCC(=O)Nc2nc(-c3cccc(-c4ccn(CC(=O)O)n4)c3)cs2)cc1 [Compound 210, 2-[3-[3-[2-[[2-[(4-aminobenzoyl)amino]acetyl]amino]thiazol-4-yl]phenyl]pyrazol-1-yl]acetic acid] | 0.1 to 1 µM | >95% | 0.1 to 1 µM | >80%
CC(C)(N)c1cc(-c2cccc(-c3csc(NC(=O)CNC(=O)c4ccc(N)cc4)n3)c2)ccn1 [Compound 211, 4-amino-N-[2-[[4-[3-[2-(1-amino-1-methyl-ethyl)-4-pyridyl]phenyl]thiazol-2-yl]amino]-2-oxo-ethyl]benzamide] | 0.1 to 1 µM | >95% | 0.1 to 1 µM | >90%
CC(C)(C(=O)O)n1ccc(-c2cccc(-c3csc(NC(=O)CNC(=O)c4ccc(N)cc4)n3)c2)n1 [Compound 212, 2-[3-[3-[2-[[2-[(4-aminobenzoyl)amino]acetyl]amino]thiazol-4-yl]phenyl]pyrazol-1-yl]-2-methyl-propanoic acid] | 0.1 to 1 µM | >95% | 0.1 to 1 µM | >95%
CNC(=O)C(C)(C)n1ccc(-c2cccc(-c3csc(NC(=O)CNC(=O)c4ccc(N)cc4)n3)c2)n1 [Compound 213, 4-amino-N-[2-[[4-[3-[1-[1,1-dimethyl-2-(methylamino)-2-oxo-ethyl]pyrazol-3-yl]phenyl]thiazol-2-yl]amino]-2-oxo-ethyl]benzamide] | < 0.1 µM | >95% | < 0.1 µM | >95%
CSCC[C@H](NC(=O)c1ccc(N)cc1)C(=O)Nc1nc(-c2cccc(-c3ccnc(C)c3)c2)cs1 [Compound 214, (S)-4-amino-N-(1-((4-(3-(2-methylpyridin-4-yl)phenyl)thiazol-2-yl)amino)-4-(methylthio)-1-oxobutan-2-yl)benzamide] | < 0.1 µM | >95% | < 0.1 µM | >95%
Cc1nnc(C(=O)NC(C)(C)c2cc(-c3cccc(-c4csc(NC(=O)CNC(=O)c5ccc(N)cc5)n4)c3)ccn2)o1 [Compound 215, N-[1-[4-[3-[2-[[2-[(4-aminobenzoyl)amino]acetyl]amino]thiazol-4-yl]phenyl]-2-pyridyl]-1-methyl-ethyl]-5-methyl-1,3,4-oxadiazole-2-carboxamide] | 0.1 to 1 µM | >90% | 0.1 to 1 µM | >90%
CNC(=O)Cn1ccc(-c2cccc(-c3csc(NC(=O)CNC(=O)c4ccc(N)cc4)n3)c2)n1 [Compound 216, 4-amino-N-[2-[[4-[3-[1-[2-(methylamino)-2-oxo-ethyl]pyrazol-3-yl]phenyl]thiazol-2-yl]amino]-2-oxo-ethyl]benzamide] | < 0.1 µM | >90% | 0.1 to 1 µM | >95%
Nc1ccc(C(=O)NCC(=O)Nc2nc(-c3ccnc(-c4ccncc4)c3)cs2)cc1 [Compound 217, 4-amino-N-[2-oxo-2-[[4-[2-(4-pyridyl)-4-pyridyl]thiazol-2-yl]amino]ethyl]benzamide] | < 0.1 µM | >90% | < 0.1 µM | >90%
Nc1ccc(C(=O)NCC(=O)Nc2nc(-c3cccc(CCc4ccncc4)c3)cs2)cc1 [Compound 218, 4-amino-N-[2-oxo-2-[[4-[3-[2-(4-pyridyl)ethyl]phenyl]thiazol-2-yl]amino]ethyl]benzamide] | < 0.1 µM | >95% | 0.1 to 1 µM | >90%
Nc1ccc(C(=O)NCC(=O)Nc2nc(-c3cccc(-c4ccnc(C5(C(=O)O)CC5)c4)c3)cs2)cc1 [Compound 219, 1-[4-[3-[2-[[2-[(4-aminobenzoyl)amino]acetyl]amino]thiazol-4-yl]phenyl]-2-pyridyl]cyclopropanecarboxylic acid] | < 0.1 µM | >95% | < 0.1 µM | >95%
Cn1cnc(-c2cccc(-c3csc(NC(=O)CNC(=O)c4ccc(N)cc4)n3)c2)c1 [Compound 220, 4-amino-N-[2-[[4-[3-(1-methylimidazol-4-yl)phenyl]thiazol-2-yl]amino]-2-oxo-ethyl]benzamide] | 0.1 to 1 µM | >95% | 1 to 10 µM | >80%
Nc1ccc(C(=O)NCC(=O)Nc2nc(-c3cccc(-c4ccnc(N5CCCC(N)C5)c4)c3)cs2)cc1 (stereo not shown) [Compound 221, 4-amino-N-[2-[[4-[3-[2-(3-amino-1-piperidyl)-4-pyridyl]phenyl]thiazol-2-yl]amino]-2-oxo-ethyl]benzamide] | 0.1 to 1 µM | >95% | 0.1 to 1 µM | >80%
Cc1nc(-c2cccc(-c3csc(NC(=O)CNC(=O)c4ccc(N)cc4)n3)c2)cn1C [Compound 222, 4-amino-N-[2-[[4-[3-(1,2-dimethylimidazol-4-yl)phenyl]thiazol-2-yl]amino]-2-oxo-ethyl]benzamide] | 0.1 to 1 µM | >95% | 0.1 to 1 µM | >80%
CNC(=O)C1(c2cc(-c3cccc(-c4csc(NC(=O)CNC(=O)c5ccc(N)cc5)n4)c3)ccn2)CC1 [Compound 223, 4-amino-N-[2-[[4-[3-[2-[1-(methylcarbamoyl)cyclopropyl]-4-pyridyl]phenyl]thiazol-2-yl]amino]-2-oxo-ethyl]benzamide] | < 0.1 µM | >95% | < 0.1 µM | >90%
Nc1ccc(C(=O)NCC(=O)Nc2nc(-c3cccc(-c4ccnc(CC(=O)O)c4)c3)cs2)cc1 [Compound 224, [2-[4-[3-[2-[[2-[(4-aminobenzoyl)amino]acetyl]amino]thiazol-4-yl]phenyl]-2-pyridyl]acetyl]oxysodium] | < 0.1 µM | >95% | < 0.1 µM | >90%
CN(C)C1CCCN(c2cc(-c3cccc(-c4csc(NC(=O)CNC(=O)c5ccc(N)cc5)n4)c3)ccn2)C1 (stereo not shown) [Compound 225, 4-amino-N-[2-[[4-[3-[2-[3-(dimethylamino)-1-piperidyl]-4-pyridyl]phenyl]thiazol-2-yl]amino]-2-oxo-ethyl]benzamide] | 0.1 to 1 µM | >80% | 0.1 to 1 µM | >90%
CNC(=O)C(C)(C)c1cc(-c2cccc(-c3csc(NC(=O)CNC(=O)c4ccc(N)cc4)n3)c2)ccn1 [Compound 226, 4-amino-N-[2-[[4-[3-[2-[1,1-dimethyl-2-(methylamino)-2-oxo-ethyl]-4-pyridyl]phenyl]thiazol-2-yl]amino]-2-oxo-ethyl]benzamide] | < 0.1 µM | >95% | < 0.1 µM | >95%
Nc1ccc(C(=O)NCC(=O)Nc2nc(-c3cccc(-c4ccncn4)c3)cs2)cc1 [Compound 227, 4-amino-N-[2-oxo-2-[[4-(3-pyrimidin-4-ylphenyl)thiazol-2-yl]amino]ethyl]benzamide] | < 0.1 µM | >95% | < 0.1 µM | >95%
Cn1ncc2ccc(-c3csc(NC(=O)CNC(=O)c4ccc(N)cc4)n3)cc21 [Compound 228, 4-amino-N-[2-[[4-(1-methylindazol-6-yl)thiazol-2-yl]amino]-2-oxo-ethyl]benzamide] | 0.1 to 1 µM | >90% | 0.1 to 1 µM | >90%
CC(C)(O)Cn1ccc(-c2cccc(-c3csc(NC(=O)CNC(=O)c4ccc(N)cc4)n3)c2)n1 [Compound 229, 4-amino-N-[2-[[4-[3-[1-(2-hydroxy-2-methyl-propyl)pyrazol-3-yl]phenyl]thiazol-2-yl]amino]-2-oxo-ethyl]benzamide] | 0.1 to 1 µM | >95% | 0.1 to 1 µM | >95%
Nc1ccc(C(=O)NCC(=O)Nc2nc(-c3cccc(COC4CCOCC4)c3)cs2)cc1 [Compound 230, 4-amino-N-[2-oxo-2-[[4-[3-(tetrahydropyran-4-yloxymethyl)phenyl]thiazol-2-yl]amino]ethyl]benzamide] | 0.1 to 1 µM | >95% | 0.1 to 1 µM | >90%
